Assay results as given in US10159678B2, “Methods to decrease susceptibility to asthmatic bronchoconstriction” (Cornell University, priority 2012, dated 2018).

How the values were obtained:
isolated bronchial rings [1] = assay: MgSO4-induced relaxation of methacholine-stimulated bronchial rings from myriocin-treated mice; details: rings from mice given intranasal myriocin (20 μg), methacholine then MgSO4 (15 mM); FIG. 5C
Protocol: The effect of Mg^2+ supplementation on methacholine-induced contraction of bronchial rings was analyzed by adding MgSO4 (15 mM) to the myograph bath solution following stimulation with methacholine (10 μM).

[2] = test system: ORMDL1, ORMDL2 and ORMDL3 mRNA; assay: ORMDL1, 2 and 3 mRNA expression in lung tissue (RealTime RT-PCR); format: in vivo, mice; details: 20 μg myriocin; FIG. 2H
Protocol: RNA was extracted from lungs using TRIzol (Invitrogen). Following reverse transcription of 3 μg RNA, ORMDL1, 2 and 3 mRNAs were amplified using the following primers and probes (Roche Applied Science): RNA levels were quantified using the ΔΔCt method and normalized to expression of murine ribosomal 18s (4310893E, Applied Biosystems). To assess if ORMDL expression was altered with decreased activity of SPT, mRNA expression of ORMDL1, 2 and 3 in lung tissue was analyzed following myriocin treatment and in the Sptlc2^+/− mice. Expression of ORMDL1, 2 or 3 was not affected by myriocin (FIG. 2H) or by genetic SPT deficiency (FIG. 2I).

isolated bronchial rings [3] = assay: Myograph contractile response of bronchial rings isolated from myriocin-treated mice; format: in vivo; details: rings isolated from mice given myriocin (20 μg) intranasally; dose-dependent manner; FIG. 3C, 3D
Protocol: To directly assess bronchial reactivity bronchi were dissected from myriocin treated mice, Sptlc2^+/− or naïve mice, and mounted on hooks in a multiwire myograph system (DMT, Ann Arbor, Mich.) where they were kept at a resting tension of 200-250 mg in Krebs Henseleit (KH) solution at 37° C. (95% O2, 5% CO2). In addition, bronchial rings from naïve mice were bathed in myriocin (10 μM) for 3 h in the myograph before analysis. Mechanical forces were measured isometrically with force transducers interfaced to a data acquisition system (ADInstruments, Colorado Springs, Colo.) and analyzed with LabChart6Pro for Windows. Potassium (80 mM) was used to achieve maximum contraction and methacholine (0.01-10 μM) was added 30 min after washout of the K^+ solution. Contractile responses were measured as percentage of the response to K^+.

[4] = test system: lung sphingolipid composition; assay: Lung sphingolipid composition by UPLC-MS/MS after intranasal myriocin; format: in vivo, BALB/c mice
Protocol: Animal studies described herein were conducted under protocols approved by the Institutional Animal Care and Use Committee of Weill Cornell Medical College. Female BALB/c mice, obtained from Taconic Farms (Tarrytown, N.Y.). Animals were housed under specific pathogen-free conditions and used at 6 to 8 weeks of age. Myriocin (Enzo Life Sciences, Plymouth Meeting, Pa.) was freshly prepared from a 10 mM stock solution to a 1 mM or 100 μM solution in 0.9% saline and 0.05% fatty acid free bovine serum albumin and 50 μl were administered intranasally. Control animals received the vehicle solution (1% DMSO in 0.9% saline, […] BSA) or were naïve. Three hours later the animals underwent pulmonary function testing and were sacrificed. Heterozygous SPT-deficient mice (Sptlc2^+/−) or homozygous controls (Sptlc2^+/+) were bred, identified by genotyping using procedures like those described by Hojjati et al. (2005) and used at 6-8 weeks of age.
Lungs were harvested following perfusion with phosphate-buffered saline (PBS, Invitrogen, Carlsbad, Calif.) containing 0.6 mM ethylenediamine tetra acetic acid dipotassium salt dehydrate (EDTA, Invitrogen) via the right ventricle to remove blood cells from the pulmonary circulation. The lungs were then homogenized in normal PBS. De-novo sphingolipid synthesis was assessed by evaluating incorporation of ^3H-serine (24.1 Ci/mmol, Perkin Elmer (Boston, Mass.) into ceramide and sphingosine. Sphingolipid synthesis through the recycling pathway was assessed by evaluating incorporation of ^3H-sphingosine (18.2 Ci/mmol, Perkin Elmer (Boston, Mass.) into ceramide and sphingomyelin. In both assays, equal amounts of fresh lung homogenates were incubated for 30 min at 37° C. with 2 μl of the radioactive tracer, followed by lyophilization to determine dry weight, lipid extraction with chloroform/methanol/water (1:1:0.9). The organic phase was evaporated, dissolved in 50 μl chloroform/methanol (1:1) spotted on […] chromatography plates (TLC) (Merck Silica gel 60, Darmstadt, Germany) and chromatographed for 25 min with chloroform-methanol-ammonium hydroxide (65:25:4 v/v). Ceramides, sphingomyelin, phosphatidylserine, sphinganine and sphingosine, all dissolved at 1 μg/μl were run as standards. The lipids were identified according to their Rf values after visualization in an iodine vapor tank. The TLC plate was cut at the corresponding lipid spot, mixed with scintillation fluid (Ultima Gold, Packard Instrument Company, CT) and analyzed in a scintillation counter (Perkin Elmer Wallac, Gaithersburg, Md.). Results are calculated as dpm/mg protein.
Sphinganine, sphingosine, sphinganine-1-phosphate, sphingosine-1-phosphate, ceramides (Cer16, Cer18, Cer20, Cer22, Cer24:1, Cer24) were quantified in lung homogenates by ultra-performance liquid chromatography-tandem mass spectrometry (UPLC-MS/MS), on a Waters Xevo, equipped with a Waters BEH Phenyl UPLC Column (ACQUITY UPLC BEH Phenyl Column, 3.0×100 mm, 1.7 μm and a ACQUITY BEH Phenyl VanGuard Pre-column, 2.1×5 mm, 1.7 μm in the Columbia University Lipid Core as reported by Shaner et al. (2009) with minor modifications. […] of an internal standard mix (Avanti Polar Lipids, Mix 1) in ethanol, 0.5 ml methanol and 0.25 ml chloroform were added to the lyophilized lung homogenates and sonicated for 12 h at 48° C. After centrifugation at 10,000 g for 5 min, the supernatant was evaporated in a glass tube and resuspended in 100 μl methanol. 10 μl were injected into the UPLC-MS/MS. Results are calculated as pmol/mg.
Myriocin is a potent and specific inhibitor of SPT that affects SPT independent of orm. To assess if direct administration of myriocin to the respiratory tract affects pulmonary sphingolipid synthesis, the lung sphingolipid composition was determined by ultra-performance liquid chromatography-tandem mass spectrometry (UPLC-MS/MS) 3 h following intranasal administration of myriocin.

human bronchial rings = assay: Myograph contractile response of human bronchial rings in myriocin-containing bath; details: 90 min in myriocin-containing bath solution (10 μM), then methacholine; FIG. 3E
Protocol: Human bronchial tissues were obtained from patients (n=15) undergoing surgery for lung cancer. The study was approved by the IRB at Weill Cornell Medical College. Within 30 min following resection, segments of bronchi with an inner diameter of 3-5 mm were taken from areas as far removed from the malignancy as possible. Bronchi were placed in oxygenated KH and following removal of adhering fat and connective tissues four to eight rings of the same bronchus were prepared. Each set of bronchial rings was suspended under an initial tension of 300-350 mg in KH solution containing 0.01% BSA, bubbled with 95% O2 and 5% CO2 at 37° C. and then washed every 15 min for 1 h. K^+ solution (80 mM) was then used to achieve maximum contraction and myriocin (10 μM) or solvent was added 30 min after washout of the K^+ solution. Methacholine (0.01-1 μM) was added after 90 minutes. Experiments were conducted on parallel groups of four rings at a time. Contractile responses were measured and analyzed as for the murine rings.

## CCCCCCC(=O)CCCCCC/C=C/C[C@@H](O)[C@H](O)[C@@](N)(CO)C(=O)O [myriocin]
Isolated bronchial rings [1]
  magnesium-induced relaxation of bronchial rings: impaired
[2]
  Expression of ORMDL1, 2 or 3 in lung tissue: not affected
Isolated bronchial rings [3]
  contractile responses of bronchial rings to methacholine: increased
[4]; 3 h following intranasal administration of myriocin (20 μg), FIG. 1A
  sphinganine in the lung: reduced
[4]; 3 h following intranasal myriocin (20 μg), FIG. 1B
  sphingosine levels in the lung: not significantly decreased
[4]; 3 h following intranasal myriocin (20 μg), FIG. 1C
  sphinganine-1P (Sa1P) levels in the lung: not significantly decreased
[4]; 3 h following intranasal myriocin (20 μg), FIG. 1D
  sphingosine-1P (S1P) levels in the lung: not significantly decreased
[4]; 3 h following intranasal myriocin (20 μg), FIG. 1E-1G
  sum of ceramides (C14, C16, C18, C20, C22, C24, C24:1) in the lung: decreased
[4]; 3 h following intranasal myriocin, FIGS. 1F and 1G
  certain individual ceramides in the lung: individually decreased
Human bronchial rings
  contractile force of human bronchial rings: increased contractile force
